This is an account of results in patent US11179322B2, “Methods and compositions for treating tumors with TTFields and sorafenib” (Novocure GmbH, priority 2018, dated 2021).

The IC50 is the point on the concentration scale where inhibition reaches its midpoint.

Data set [1] concerns HepG2 cells. The data set can be described thus: Apoptosis induction (FITC Annexin V / 7-AAD flow cytometry). A general note: A flow cytometer gives signals particle by particle.
Experimental: (§5) The exemplary effects of the combined treatment of TTFields and sorafenib was tested using the following human HCC cell lines: HepG2 (ATCC) and Huh-7D12 (Sigma). All cells were grown in a humidified incubator supplied with 5% CO2. HepG2 were maintained in EMEM, supplemented with 10% FBS, 2 mmol/L glutamine, Pen-Strep solution (100 units/ml Penicillin and 0.1 mg/ml Streptomycin), 1 mmol/L sodium pyruvate and 1% NEAA. […] Sorafenib was obtained from BioVision, USA.
(§6) For apoptosis analysis, cells were removed with Trypsin immediately after 72 h treatment, washed twice with ice-cold PBS with 1% FBS, and stained using FITC Annexin V Apoptosis Detection Kit and 7-AAD (BioLegend, USA). Early, late, and total apoptosis was then quantified using the EC800 flow cytometer (Sony Biotechnology, Japan).
In data set [2] the test system is Huh-7D12 cells. The data set is described as above.
Experimental: as §5, §6
Data set [3] concerns HepG2 cells. The data set can be described thus: Clonogenic survival. The class given is cell-based, human. Here is the method: (§1) Sorafenib was obtained from BioVision, USA.
(§2) At the end of treatment, cells were removed with trypsin, counted, plated in 6-well plates (300 cells/plate) and incubated for 2-3 weeks in CO2 incubator at 37° C. When colonies reached 40-100 cells/colony, they were fixed with 100% methanol, stained with 0.5% crystal violet (Sigma), photographed, and the number of clones was quantified using ImageJ program.

The test system of data set [4] is Huh-7D12 cells. Description: Clonogenic survival. The class given is cell-based, human. Here is the method:
as §1, §2

Data set [5] concerns HepG2 cells. Description: Cytotoxicity assay and overall effect (cell counts by flow cytometry). The class given is cell-based, human. Here is the method: (§3) All combination experiments were performed at a frequency of 150 kHz. In these examples, the electric field intensity was 1.0 V/cm for HepG2 and 1.7 V/cm for Huh-7D12 cells. Both cell lines were grown at various sorafenib concentrations (0.1-3.0 μM), and were treated with TTFields for 72 hours. […] The number of cells was determined at the end of treatment and is expressed as a percentage of control cells.
as §1
(§4) TTFields (1.0-1.7 V/cm RMS, 150 kHz) were applied for 72 hours to cell lines using the Inovitro™ system. At the end of treatment, inhibition of tumor cell growth was analysed quantitatively based on cell counts performed on EC800 flow cytometer (Sony Biotechnology, Japan).

Data set [6] deals with Huh-7D12 cells. The data set is described as above. The format is cell-based, human. Here is the method: as §3, §1, §4
Data set [7] deals with N1S1 Hepatocellular Carcinoma. The data set can be described thus: N1S1 orthotopic HCC rat model, tumor volume by MRI. The format is in vivo. The settings on record: Sprague Dawley rats, N1S1 liver tumor, sorafenib 10 mg/kg/day IP + TTFields 150 kHz 2.86 V/cm.
Experimental: In this experiment, the volume of the tumor was measured using MRI on day 6 (one day before treatment start) and day 14 (one day after the end of treatment); and each data point in FIG. 7 represents the volume of the tumor on day 14 divided by the volume of the tumor on day 6. Thus, numbers greater than 1 represent growth in the tumor volume, and numbers smaller than 1 represent a tumor that has shrunk between day 6 and day 14.
In the first part, the efficacy of different Sorafenib concentrations in combination with TTFields was tested, and one concentration was used during future experiments (10 mg/kg/day over 5 days). In the following experiments, the combined treatment of a single Sorafenib concentration and TTFields (150 kHz) was tested.
All animals were injected orthotopically to the left lobe of the liver with N1S1 Hepatocellular Carcinoma model (Garin E. et al., 2005) by day 0 as described in SOP-BI-036. The peritoneum was closed using sutures and the wound was closed using clips. On day 6, all animals underwent first MRI (as described in SOP-BI-029) and were randomly divided into groups. […]
Tumor volume was determined based on MRI scans on days 7, 14 and day 21 after injection. […] Tumor volume was measured by manual segmentation of the tumor using ITK-SNAP version 3.6.0-rc1 free software.

Take `CNC(=O)c1cc(Oc2ccc(NC(=O)Nc3ccc(Cl)c(C(F)(F)F)c3)cc2)ccn1` [sorafenib, 4-[4-[[4-chloro-3-(trifluoromethyl)phenyl]carbamoylamino]phenoxy]-N-methylpyridine-2-carboxamide]: the “apoptotic events, sorafenib alone” value is listed as “increased apoptotic events” with HepG2 cells [1] (HepG2, 72 hours, sorafenib from no drug to 3 μM) and “increased apoptotic events” in the data set with Huh-7D12 cells [2] (Huh-7D12, 72 hours, sorafenib from no drug to 3 μM). The “additional increase in apoptosis, sorafenib with TTFields” value was 10-45% with HepG2 cells [1] (HepG2, sorafenib + TTFields 150 kHz 1.0 V/cm, 72 hours, range stated for both cell lines) and 10-45% with Huh-7D12 cells [2] (Huh-7D12, sorafenib + TTFields 150 kHz 1.7 V/cm, 72 hours, range stated for both cell lines). Further, the “clonogenic potential, sorafenib monotherapy” value is given as “reduction in the clonogenic potential” with HepG2 cells [3] (HepG2, escalating dose of sorafenib alone) and “reduction in the clonogenic potential” with Huh-7D12 cells [4] (Huh-7D12, escalating dose of sorafenib alone). For the same molecule, the “clonogenic survival, combined treatment of TTFields and sorafenib” value in the data set on HepG2 cells [3] (HepG2, sorafenib + TTFields 150 kHz 1.0 V/cm, 72 hours) is listed as “additional reduction in the clonogenic survival”; in the data set on Huh-7D12 cells [4] (Huh-7D12, sorafenib + TTFields 150 kHz 1.7 V/cm, 72 hours), “additional reduction in the clonogenic survival”. In addition, the “cytotoxicity of combined treatment of TTFields and sorafenib” value in the data set with HepG2 cells [5] (HepG2, sorafenib 0.1-3.0 μM + TTFields 150 kHz 1.0 V/cm, 72 hours, 2-way ANOVA p<0.001) is “enhanced cytotoxicity”; in the data set on Huh-7D12 cells [6] (Huh-7D12, sorafenib 0.1-3.0 μM + TTFields 150 kHz 1.7 V/cm, 72 hours, 2-way ANOVA p<0.001) it was “enhanced cytotoxicity”. Besides, the “overall effect, sorafenib in combination with TTFields vs sorafenib alone” value in the data set with HepG2 cells [5] (HepG2, sorafenib 0.1-3.0 μM, TTFields 1.0 V/cm) is given as “improvement provided by TTFields can be seen even at low levels of sorafenib”; in the data set with Huh-7D12 cells [6] (Huh-7D12, sorafenib 0.1-3.0 μM, TTFields 1.7 V/cm) it was “improvement provided by TTFields can be seen even at low levels of sorafenib”. In addition, the IC50 in the data set with HepG2 cells [5] (Homo sapiens, HepG2, sorafenib alone, 72 hours, read-out: IC50 (number of cells, percentage of control)) was approximately 1 µM; in the data set with Huh-7D12 cells [6] (Homo sapiens, Huh-7D12, sorafenib alone, 72 hours, read-out: IC50 (number of cells, percentage of control)), approximately 1 µM. For the same molecule, the “tumor volume (day 14 divided by day 6, MRI), combination of TTFields and sorafenib” value in data set [7] is given as “synergistic decrease in tumor volume”.
